Experimental data reported in the NIST ThermoML archive (doi:10.1021/acs.jced.6b00766).

Assay: mn = molality of the nth substance listed, in mol/kg
Details: 101.3 kPa, Liquid; for viscosity: Capillary tube (Ostwald / Ubbelohde) method; for mass density: Vibrating tube method

OC[C@@H](O)[C@H](O)[C@@H](O)CO [xylitol] + O
Details	mass density, m1 = 0.2 [kg/m3]	mass density, m1 = 0.4 [kg/m3]	mass density, m1 = 0.6 [kg/m3]	mass density, m1 = 0.8 [kg/m3]	mass density, m1 = 1 [kg/m3]	viscosity, m1 = 0.2 [mPa·s]	viscosity, m1 = 0.4 [mPa·s]	viscosity, m1 = 0.6 [mPa·s]	viscosity, m1 = 0.8 [mPa·s]	viscosity, m1 = 1 [mPa·s]
293.15 K	1008.15	1017.64	1026.71	1035.41	1043.78	1.079	1.161	1.25	1.348	1.443
303.15 K	1005.42	1014.74	1023.67	1032.22	1040.41	0.855	0.916	0.981	1.059	1.128
313.15 K	1001.85	1011.07	1019.85	1028.28	1036.38	0.697	0.744	0.794	0.851	0.904
323.15 K	997.56	1006.6	1015.35	1023.7	1031.65	0.582	0.617	0.657	0.701	0.741
